According to patent US5338747A, “Benzoisothiazolinone-1-dioxide derivatives as elastase inhibitors” (Chesebrough-Pond's USA Co., Division of Conopco, Inc., priority 1990, dated 1994):
One block for each molecule: values may come before it.

Experiments:
Plasmin = assay: Serine protease inhibition, E/IC50: plasmin; type: biochemical
Experimental: (§1) The inhibition exerted by the following two compounds on serine-containing proteases other than human Teucocytic elastase was determined in this Example:
(§2) More specifically, the activity of a) pig pancreatic elastase, b) trypsin, c) thrombin and d) plasmin was determined in the presence of these inhibitors and of the synthetic substrates: a) succinyltrialanine p-nitroanilide, b) N-benzoyl-DL-arginine p-nitroanilide, c) N-p-tosyl-gly-pro-arg p-nitroanilide and d) N-p-tosyl-gly-pro-lys p-nitroanilide, respectively.
(§3) Each enzyme was first incubated for 15 min with 0-50 μg/ml of compound B or P mentioned above, which had been dissolved in acetone as in the test with human leucocytic elastase, the final concentration of this solvent in the reaction mixture being 1%.
(§4) The appropriate substrate was then added to each enzyme, and its hydrolysis was monitored with a Philips 8700 spectrophotometer at 410 nm by measuring the amount of p-nitroaniline appearing in the medium.
(§5) The results were used to plot the inhibition of the enzymatic activity against the amount of inhibitor present in the medium. […]
(§6) To be able to compare the inhibitory power of the compounds tested on the various enzymes used, the E/IC50 value was calculated, where E is the concentration of the enzyme in the reaction mixture (also expressed in mole/l ). […]

Trypsin = molecular target: T1, Trypsin (Bos taurus, UniProt P00760); assay: Serine protease inhibition, E/IC50: trypsin; type: biochemical
T1 sequence (P00760 24-246): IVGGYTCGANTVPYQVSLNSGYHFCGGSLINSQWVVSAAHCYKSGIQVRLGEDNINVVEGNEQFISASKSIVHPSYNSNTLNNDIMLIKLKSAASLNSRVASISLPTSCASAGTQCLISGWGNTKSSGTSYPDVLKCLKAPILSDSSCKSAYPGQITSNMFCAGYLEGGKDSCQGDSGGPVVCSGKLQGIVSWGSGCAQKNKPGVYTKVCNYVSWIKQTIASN
Experimental: as §1, §2, §3, §4
The results were used to plot the inhibition of the enzymatic activity against the amount of inhibitor present in the medium. These curves were then used to find the median inhibitory concentration (IC50) in mole/l, which inhibits 50% of the enzymatic activity.
To be able to compare the inhibitory power of the compounds tested on the various enzymes used, the E/IC50 value was calculated, where E is the concentration of the enzyme in the reaction mixture (also expressed in mole/l ). The higher the value of this quotient, the stronger the inhibitory activity, and therefore the lower the number of moles of the inhibitor that are needed to obtain a 50% inhibition for the same number of moles of the enzyme.

Pig pancreatic elastase = Pig pancreatic elastase (Sus scrofa, UniProt P00772); assay: Serine protease inhibition, E/IC50: pig pancreatic elastase; type: biochemical; settings: pig pancreatic elastase vs thrombin
Experimental: as §1, §2, §3, §4, §5, §6

[1] = molecular target: T2, Human leucocytic elastase (Homo sapiens, UniProt P08246); assay: Serine protease inhibition, E/IC50: human leucocytic elastase; type: biochemical; settings: human leucocytic elastase vs thrombin
T2 sequence (P08246 30-247 limits assumed): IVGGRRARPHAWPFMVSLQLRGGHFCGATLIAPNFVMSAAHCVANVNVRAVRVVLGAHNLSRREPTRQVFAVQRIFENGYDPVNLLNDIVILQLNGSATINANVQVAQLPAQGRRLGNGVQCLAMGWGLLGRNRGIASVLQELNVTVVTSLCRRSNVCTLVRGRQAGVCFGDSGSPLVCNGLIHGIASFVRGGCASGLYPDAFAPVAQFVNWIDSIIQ
Experimental: (§7) The inhibition test was carried out by using succinyltrialanine p-nitroanilide as a synthetic substrate. Human leucocytic elastase, used at a concentration of 1 μg/ml, was first pre-incubated for 15 min with the compounds of the invention, used at a concentration of 0.5, 5, 10, 25 and 50 μg/ml. These compounds were added in the form of a solution in acetone, the final acetone concentration of the reaction mixture being 1%.
The degree of hydrolysis of the substrate was determined by measuring the amount of p-nitroaniline released, using a Philips PO 8700 spectrophotometer at 410 nm. […]
The inhibition exerted by the following two compounds on serine-containing proteases other than human Teucocytic elastase was determined in this Example: […]
The appropriate substrate was then added to each enzyme, and its hydrolysis was monitored with a Philips 8700 spectrophotometer at 410 nm by measuring the amount of p-nitroaniline appearing in the medium. […]
(§8) Inhibition of human leucocytic elastase was also determined, as in Example 12.
as §6

[2] = molecular target: T2, Human leucocytic elastase; assay: Protective action on the elastin in rabbit skin sections treated with human leucocytic elastase; settings: 1.5 h at 37° C.
Experimental: The segments of rabbit skin were incubated for 1.5 h at 37° C. In the control experiment, they were incubated only with the buffer (100-mM tris-HCl, 0.1% of Brij 35, pH 8) under the same conditions. Thin sections of the skin specimens were then fixed for 2 min in 95% ethanol and stained for 3 h by a modified Verhoeff method, described by Godeau et al. [cf. Pathol. Biol., 32 (1984) pp. 215-6]. After a suitable contrast treatment, the surface density of the elastic fibres was determined by automatic image analysis, carried out directly on the microscope slides.

[3] = molecular target: T2, Human leucocytic elastase; assay: Direct inhibition of elastin-cleaving activity of human leucocytic elastase (first series, elastase pre-incubated with compound); type: biochemical; settings: pH 8.4, 7 h at 37° C.
Experimental: 1) Inhibitory action […] Tritiated insoluble elastin extracted from the nuchal ligament was then added in a concentration of 75 μg/ml, corresponding to a radioactivity level of 2.2×10^6 counts per minute (cpm) per ml. The degree of the hydrolysis of elastin was calculated in all three cases after incubation with elastase for 7 h at 37° C. by determining the radioactivity in the solubilized peptides derived from the elastin.

[4] = molecular target: T2, Human leucocytic elastase; assay: Protective action on insoluble elastin against human leucocytic elastase (second and third series, elastin pre-incubated with compound); type: biochemical; settings: 50-100 μg/ml, elastin first incubated with compound 30 min or 10 min
Experimental: Tritiated insoluble elastin extracted from the nuchal ligament was then added in a concentration of 75 μg/ml, corresponding to a radioactivity level of 2.2×10^6 counts per minute (cpm) per ml. 2) Protective action […] 3) Third series […] The mixture was then centrifuged, the supernatant was discarded, and the residue was suspended in the buffer that contained human leucocytic elastase. The degree of the hydrolysis of elastin was calculated in all three cases after incubation with elastase for 7 h at 37° C. by determining the radioactivity in the solubilized peptides derived from the elastin.

[5] = molecular target: T2, Human leucocytic elastase; assay: Inhibition of human leucocytic elastase (succinyltrialanine p-nitroanilide substrate); type: biochemical; settings: elastase 1 μg/ml, pre-incubated 15 min; 1% acetone; 410 nm
Experimental: as §7
The degree of hydrolysis of the substrate was determined by measuring the amount of p-nitroaniline released, using a Philips PO 8700 spectrophotometer at 410 nm. The 50% inhibitory concentration (IC50) in mole/liter was then determined by a graphical method, using the inhibition values obtained with the different concentrations of the substrate and the inhibitor. […] It can thus be seen that the inhibitory action of these compounds increases with the number of carbon atoms in the R^2 group on going from C9 to C17.

serine proteases = assay: Comparison of inhibitory power over all serine proteases used (E/IC50); type: biochemical; settings: all enzymes of Table 2
Experimental: as §1, §2, §3, §4, §5, §8, §6

Sequence of Pig pancreatic elastase (P00772 27-266): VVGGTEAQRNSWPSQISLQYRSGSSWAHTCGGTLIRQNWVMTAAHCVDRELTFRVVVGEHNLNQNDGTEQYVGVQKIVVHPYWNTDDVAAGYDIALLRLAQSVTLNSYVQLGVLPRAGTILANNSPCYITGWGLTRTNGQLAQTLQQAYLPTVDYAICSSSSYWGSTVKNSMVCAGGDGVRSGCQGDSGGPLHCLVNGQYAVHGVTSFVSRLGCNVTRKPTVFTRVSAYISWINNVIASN

SMILES: CCCC(=O)N1C(=O)c2ccccc2S1(=O)=O [2-butyryl-benzisothiazolinone-1-dioxide]
effect on plasmin (in words) (Plasmin; 0-50 μg/ml): no effect on plasmin
E/IC50 (Plasmin; E = enzyme concentration (mole/l), N-p-tosyl-gly-pro-lys p-nitroanilide substrate): inactive
effect on trypsin (in words) (Trypsin; 0-50 μg/ml): activates trypsin
E/IC50 (Trypsin; E = enzyme concentration (mole/l), N-benzoyl-DL-arginine p-nitroanilide substrate): activator
inhibition relative to thrombin (in words) (Pig pancreatic elastase): more strongly than it inhibits thrombin
inhibition relative to thrombin (in words) [1]: more strongly than it inhibits thrombin

SMILES: CCCCCCCCCCCC(=O)N1C(=O)c2ccccc2S1(=O)=O [Example 1, 2-lauroylbenzisothiazolinone-1-dioxide]
volume fraction V occupied by the cutaneous elastic fibres ([2]; elastase 15 μg/ml + compound 350 μg/ml, V without elastase 6.25±0.5%, with elastase alone 4.1±0.8%): 6.00±1%
inhibition at 350 µg/mL ([2]; pH 8, elastase 15 μg/ml + compound 350 μg/ml, read-out: protection from the action of elastase): 96%
inhibition at 45 µg/mL ([3]; 45 μg/ml, elastase 1 μg/ml, tritiated insoluble elastin 75 μg/ml): 80%
IC50 ([3]; elastase 1 μg/ml incubated 10 min with compound): 75 µM
maximum inhibition (protection of insoluble elastic fibres) [4]: 50%
IC50 [5]: 11 µM

SMILES: CCCCCCCCCCCCCC(=O)N1C(=O)c2ccccc2S1(=O)=O [Example 2, 2-myristoylbenzisothiazolinone-1-dioxide]
IC50 [5]: 9.2 µM

SMILES: CCCCCCCCCC(=O)N1C(=O)c2ccccc2S1(=O)=O [Example 5]
IC50 [5]: 86 µM

SMILES: C=CCCCCCCCCC(=O)N1C(=O)c2ccccc2S1(=O)=O [Example 6, 2-undecenoylbenzisothiazolinone-1-dioxide]
IC50 [5]: 75 µM

SMILES: O=C(C=Cc1ccccc1)N1C(=O)c2ccccc2S1(=O)=O [Example 8]
IC50 [5]: 90 µM

SMILES: O=C(CCc1ccccc1)N1C(=O)c2ccccc2S1(=O)=O [Example 9]
IC50 [5]: 48 µM

SMILES: COc1ccc(CCCC(=O)N2C(=O)c3ccccc3S2(=O)=O)cc1 [Example 10]
IC50 [5]: 36 µM

Now from value to molecule, other results behind:

inhibition relative to thrombin (Trypsin; trypsin vs thrombin): 20-40 times
IC50 [5]: 2.1 µM
inhibition relative to thrombin (Pig pancreatic elastase): 20-40 times
inhibition relative to thrombin [1]: 20-40 times
SMILES: CCCCCCCCCCCCCCCC(=O)N1C(=O)c2ccccc2S1(=O)=O [Example 3, 2-palmitoyl-benzisothiazolinone-1-dioxide]
inhibitory power relative to butyrylbenzisothiazolinone-1-dioxide (in words) (serine proteases): better inhibitor than butyrylbenzisothiazolinone-1-dioxide, irrespective of the enzyme used

IC50 [5]: 4.7 µM
SMILES: CCCCCCCCCCCCCCCCCC(=O)N1C(=O)c2ccccc2S1(=O)=O [Example 4, 2-stearoylbenzisothiazolinone-1-dioxide]

IC50 [5]: 5 µM
SMILES: COc1ccc(C=CC(=O)N2C(=O)c3ccccc3S2(=O)=O)cc1OC [Example 7, 2-[(3,4)-dimethoxycinnamoyl]-benzisothiazolinone-1-dioxide]
